pIC50: −log10 of the molar value.
How the values were obtained:
[1] = tested on: Epidermal growth factor receptor (Homo sapiens), P00533 [UNDEFINED MUTATION]; assay: Inhibition of EGFR S752-I759del mutant (unknown origin) assessed as residual activity at 1000 nM by KINOMEscan analysis relative to control
[2] = biological target: G protein-coupled receptor kinase 4 (Homo sapiens) (UniProt P32298); assay: Inhibition of GRK4 (unknown origin) assessed as residual activity at 1000 nM by KINOMEscan analysis relative to control
[3] = biological target: Glycogen synthase kinase-3 alpha (Homo sapiens) (UniProt P49840); assay: Inhibition of GSK3A (unknown origin) assessed as residual activity at 1000 nM by KINOMEscan analysis relative to control
[4] = tested on: Mast/stem cell growth factor receptor Kit (Homo sapiens), P10721 [V559D]; assay: Inhibition of KIT V559D mutant (unknown origin) assessed as residual activity at 1000 nM by KINOMEscan analysis relative to control
[5] = biological target: T1, Serine/threonine-protein kinase Nek1 (Homo sapiens) (UniProt Q96PY6); assay: Inhibition of NEK1 (unknown origin) assessed as residual activity at 1000 nM by KINOMEscan analysis relative to control
T1 sequence (whole entry): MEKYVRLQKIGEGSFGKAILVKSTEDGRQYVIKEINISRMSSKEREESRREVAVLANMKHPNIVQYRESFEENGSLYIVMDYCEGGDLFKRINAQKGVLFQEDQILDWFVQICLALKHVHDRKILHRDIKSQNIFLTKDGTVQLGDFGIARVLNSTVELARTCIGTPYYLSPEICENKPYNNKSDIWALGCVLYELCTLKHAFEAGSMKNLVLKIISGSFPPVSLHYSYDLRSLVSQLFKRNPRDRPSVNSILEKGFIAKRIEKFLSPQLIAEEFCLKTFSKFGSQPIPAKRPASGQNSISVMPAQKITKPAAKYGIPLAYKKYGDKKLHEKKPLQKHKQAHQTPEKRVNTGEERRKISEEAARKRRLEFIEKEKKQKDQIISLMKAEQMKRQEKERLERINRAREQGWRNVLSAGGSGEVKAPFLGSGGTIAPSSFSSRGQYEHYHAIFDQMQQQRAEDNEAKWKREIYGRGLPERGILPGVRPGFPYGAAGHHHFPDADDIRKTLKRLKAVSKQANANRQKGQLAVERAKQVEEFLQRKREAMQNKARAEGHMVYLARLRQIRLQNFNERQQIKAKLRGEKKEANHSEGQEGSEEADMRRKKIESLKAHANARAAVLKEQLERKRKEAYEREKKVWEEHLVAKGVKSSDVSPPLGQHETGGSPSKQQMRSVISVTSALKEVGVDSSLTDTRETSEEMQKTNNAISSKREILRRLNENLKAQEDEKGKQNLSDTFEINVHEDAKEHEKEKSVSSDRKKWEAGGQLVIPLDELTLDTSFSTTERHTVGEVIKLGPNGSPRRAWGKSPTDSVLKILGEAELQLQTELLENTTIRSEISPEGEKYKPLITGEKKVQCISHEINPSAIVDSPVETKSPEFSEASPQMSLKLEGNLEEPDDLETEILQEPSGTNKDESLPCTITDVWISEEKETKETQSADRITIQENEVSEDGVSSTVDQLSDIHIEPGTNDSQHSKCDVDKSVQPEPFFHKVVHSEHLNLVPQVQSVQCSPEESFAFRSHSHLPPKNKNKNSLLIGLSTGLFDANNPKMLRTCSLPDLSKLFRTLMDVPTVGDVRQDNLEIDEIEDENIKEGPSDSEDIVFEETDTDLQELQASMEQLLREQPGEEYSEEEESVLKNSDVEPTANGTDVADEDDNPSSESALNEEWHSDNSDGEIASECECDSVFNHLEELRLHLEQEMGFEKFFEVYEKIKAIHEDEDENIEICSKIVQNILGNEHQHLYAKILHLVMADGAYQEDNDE

[6] = biological target: T2, Serine/threonine-protein kinase TBK1 (Homo sapiens) (UniProt Q9UHD2); assay: Inhibition of TBK1 (unknown origin) assessed as residual activity at 1000 nM by KINOMEscan analysis relative to control
T2 sequence (whole entry): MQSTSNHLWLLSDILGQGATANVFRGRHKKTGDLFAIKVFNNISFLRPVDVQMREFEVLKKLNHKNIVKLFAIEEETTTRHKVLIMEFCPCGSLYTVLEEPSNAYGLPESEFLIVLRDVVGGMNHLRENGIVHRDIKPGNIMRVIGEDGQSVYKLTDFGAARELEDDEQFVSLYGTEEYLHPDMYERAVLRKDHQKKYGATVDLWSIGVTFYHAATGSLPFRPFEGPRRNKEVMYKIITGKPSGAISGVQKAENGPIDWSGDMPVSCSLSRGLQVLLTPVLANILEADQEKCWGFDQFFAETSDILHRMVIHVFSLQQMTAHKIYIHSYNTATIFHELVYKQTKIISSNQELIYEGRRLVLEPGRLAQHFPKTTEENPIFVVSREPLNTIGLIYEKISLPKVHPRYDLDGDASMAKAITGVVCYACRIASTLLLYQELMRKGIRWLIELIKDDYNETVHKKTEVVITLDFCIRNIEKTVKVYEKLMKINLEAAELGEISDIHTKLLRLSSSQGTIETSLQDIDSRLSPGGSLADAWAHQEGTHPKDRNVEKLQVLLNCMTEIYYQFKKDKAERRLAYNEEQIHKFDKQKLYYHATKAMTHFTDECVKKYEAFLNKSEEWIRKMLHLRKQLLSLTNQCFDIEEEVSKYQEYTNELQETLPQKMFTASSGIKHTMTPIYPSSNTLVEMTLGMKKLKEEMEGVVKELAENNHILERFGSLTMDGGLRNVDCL

Calu-1 = assay: Antiproliferative activity against human Calu-1 cells assessed as inhibition of cell viability incubated for 72 hrs by Cell Titer Glo assay; format: functional, cell-based; settings: Calu-1, 72 h
[7] = biological target: Serine/threonine-protein kinase MAK (Homo sapiens) (UniProt P20794); assay: Inhibition of MAK (unknown origin) assessed as residual activity at 1000 nM by KINOMEscan analysis relative to control
Sequence of Serine/threonine-protein kinase MAK (Homo sapiens) (P20794 whole entry, looked up): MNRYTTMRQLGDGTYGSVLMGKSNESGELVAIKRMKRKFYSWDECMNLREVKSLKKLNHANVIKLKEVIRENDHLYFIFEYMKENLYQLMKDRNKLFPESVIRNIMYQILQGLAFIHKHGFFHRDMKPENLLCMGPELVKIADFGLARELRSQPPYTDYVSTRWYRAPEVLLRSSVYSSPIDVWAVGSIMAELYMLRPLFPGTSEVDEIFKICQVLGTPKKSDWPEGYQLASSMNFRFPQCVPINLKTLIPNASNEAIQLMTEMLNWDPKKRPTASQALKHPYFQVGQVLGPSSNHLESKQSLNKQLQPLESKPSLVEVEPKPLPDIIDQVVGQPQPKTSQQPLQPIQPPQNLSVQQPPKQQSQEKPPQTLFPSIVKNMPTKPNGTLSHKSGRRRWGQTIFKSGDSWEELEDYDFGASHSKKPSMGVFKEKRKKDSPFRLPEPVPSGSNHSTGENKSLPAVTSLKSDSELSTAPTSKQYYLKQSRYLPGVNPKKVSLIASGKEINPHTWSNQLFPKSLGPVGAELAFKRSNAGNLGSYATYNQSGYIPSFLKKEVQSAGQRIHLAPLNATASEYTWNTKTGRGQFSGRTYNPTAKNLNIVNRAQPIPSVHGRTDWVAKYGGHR

Sequence of Glycogen synthase kinase-3 alpha (Homo sapiens) (P49840 2-483 limits assumed): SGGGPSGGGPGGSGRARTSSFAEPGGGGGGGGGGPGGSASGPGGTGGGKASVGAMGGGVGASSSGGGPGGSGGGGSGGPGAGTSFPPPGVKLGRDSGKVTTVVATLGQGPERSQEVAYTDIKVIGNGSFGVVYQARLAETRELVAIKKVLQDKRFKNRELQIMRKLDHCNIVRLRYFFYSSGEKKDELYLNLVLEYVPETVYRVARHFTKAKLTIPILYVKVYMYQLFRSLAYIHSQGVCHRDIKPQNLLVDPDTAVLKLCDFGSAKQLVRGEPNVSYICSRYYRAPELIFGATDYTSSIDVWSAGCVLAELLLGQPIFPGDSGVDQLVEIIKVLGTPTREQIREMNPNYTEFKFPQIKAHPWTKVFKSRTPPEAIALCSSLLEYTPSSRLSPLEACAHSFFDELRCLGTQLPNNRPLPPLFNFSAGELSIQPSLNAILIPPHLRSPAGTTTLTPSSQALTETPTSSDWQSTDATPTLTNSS
Sequence of Mast/stem cell growth factor receptor Kit (Homo sapiens), P10721 [V559D] (P10721 whole entry V559D): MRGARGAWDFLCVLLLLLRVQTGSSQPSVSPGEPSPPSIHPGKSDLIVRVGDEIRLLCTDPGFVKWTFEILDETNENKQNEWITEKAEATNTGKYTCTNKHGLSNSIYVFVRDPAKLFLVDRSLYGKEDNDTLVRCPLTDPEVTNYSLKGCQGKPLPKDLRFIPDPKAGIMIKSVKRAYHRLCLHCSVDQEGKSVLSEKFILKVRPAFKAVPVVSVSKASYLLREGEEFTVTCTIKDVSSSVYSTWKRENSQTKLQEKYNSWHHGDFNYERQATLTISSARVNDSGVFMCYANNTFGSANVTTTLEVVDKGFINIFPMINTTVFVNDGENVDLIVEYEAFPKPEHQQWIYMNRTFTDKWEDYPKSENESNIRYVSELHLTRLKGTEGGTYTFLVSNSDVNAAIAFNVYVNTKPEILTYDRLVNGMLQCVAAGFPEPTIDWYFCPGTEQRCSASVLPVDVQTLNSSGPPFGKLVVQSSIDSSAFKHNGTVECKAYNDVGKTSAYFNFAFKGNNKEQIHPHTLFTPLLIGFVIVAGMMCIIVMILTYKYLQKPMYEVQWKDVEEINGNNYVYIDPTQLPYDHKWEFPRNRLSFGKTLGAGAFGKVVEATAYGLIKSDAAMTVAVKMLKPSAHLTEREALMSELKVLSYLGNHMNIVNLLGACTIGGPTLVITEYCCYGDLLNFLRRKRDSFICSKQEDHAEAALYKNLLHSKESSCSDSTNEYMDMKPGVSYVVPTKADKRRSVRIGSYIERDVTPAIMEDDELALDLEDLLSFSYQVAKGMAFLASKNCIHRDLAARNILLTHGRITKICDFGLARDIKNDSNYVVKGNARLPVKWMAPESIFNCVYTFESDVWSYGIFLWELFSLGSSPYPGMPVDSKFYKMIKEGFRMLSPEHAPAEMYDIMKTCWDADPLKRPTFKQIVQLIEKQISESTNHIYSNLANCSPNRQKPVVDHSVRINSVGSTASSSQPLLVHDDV
Sequence of G protein-coupled receptor kinase 4 (Homo sapiens) (P32298 whole entry, looked up): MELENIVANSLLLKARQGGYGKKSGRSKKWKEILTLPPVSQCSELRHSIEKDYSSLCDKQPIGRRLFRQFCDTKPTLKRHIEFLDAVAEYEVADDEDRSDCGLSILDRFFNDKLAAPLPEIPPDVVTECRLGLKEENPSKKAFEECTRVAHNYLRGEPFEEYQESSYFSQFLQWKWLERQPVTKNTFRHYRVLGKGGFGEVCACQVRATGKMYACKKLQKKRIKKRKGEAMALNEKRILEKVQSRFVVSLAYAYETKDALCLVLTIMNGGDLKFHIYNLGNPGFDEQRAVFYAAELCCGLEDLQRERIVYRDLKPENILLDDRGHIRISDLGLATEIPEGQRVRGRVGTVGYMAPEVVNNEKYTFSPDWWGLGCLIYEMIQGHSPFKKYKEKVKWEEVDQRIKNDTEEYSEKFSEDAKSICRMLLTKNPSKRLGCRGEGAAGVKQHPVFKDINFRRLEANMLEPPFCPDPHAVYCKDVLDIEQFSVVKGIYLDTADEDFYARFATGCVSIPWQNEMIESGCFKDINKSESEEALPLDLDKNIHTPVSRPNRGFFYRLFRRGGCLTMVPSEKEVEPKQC
Sequence of Epidermal growth factor receptor (Homo sapiens), P00533 [UNDEFINED MUTATION] (P00533 whole entry, looked up, stated change not applied): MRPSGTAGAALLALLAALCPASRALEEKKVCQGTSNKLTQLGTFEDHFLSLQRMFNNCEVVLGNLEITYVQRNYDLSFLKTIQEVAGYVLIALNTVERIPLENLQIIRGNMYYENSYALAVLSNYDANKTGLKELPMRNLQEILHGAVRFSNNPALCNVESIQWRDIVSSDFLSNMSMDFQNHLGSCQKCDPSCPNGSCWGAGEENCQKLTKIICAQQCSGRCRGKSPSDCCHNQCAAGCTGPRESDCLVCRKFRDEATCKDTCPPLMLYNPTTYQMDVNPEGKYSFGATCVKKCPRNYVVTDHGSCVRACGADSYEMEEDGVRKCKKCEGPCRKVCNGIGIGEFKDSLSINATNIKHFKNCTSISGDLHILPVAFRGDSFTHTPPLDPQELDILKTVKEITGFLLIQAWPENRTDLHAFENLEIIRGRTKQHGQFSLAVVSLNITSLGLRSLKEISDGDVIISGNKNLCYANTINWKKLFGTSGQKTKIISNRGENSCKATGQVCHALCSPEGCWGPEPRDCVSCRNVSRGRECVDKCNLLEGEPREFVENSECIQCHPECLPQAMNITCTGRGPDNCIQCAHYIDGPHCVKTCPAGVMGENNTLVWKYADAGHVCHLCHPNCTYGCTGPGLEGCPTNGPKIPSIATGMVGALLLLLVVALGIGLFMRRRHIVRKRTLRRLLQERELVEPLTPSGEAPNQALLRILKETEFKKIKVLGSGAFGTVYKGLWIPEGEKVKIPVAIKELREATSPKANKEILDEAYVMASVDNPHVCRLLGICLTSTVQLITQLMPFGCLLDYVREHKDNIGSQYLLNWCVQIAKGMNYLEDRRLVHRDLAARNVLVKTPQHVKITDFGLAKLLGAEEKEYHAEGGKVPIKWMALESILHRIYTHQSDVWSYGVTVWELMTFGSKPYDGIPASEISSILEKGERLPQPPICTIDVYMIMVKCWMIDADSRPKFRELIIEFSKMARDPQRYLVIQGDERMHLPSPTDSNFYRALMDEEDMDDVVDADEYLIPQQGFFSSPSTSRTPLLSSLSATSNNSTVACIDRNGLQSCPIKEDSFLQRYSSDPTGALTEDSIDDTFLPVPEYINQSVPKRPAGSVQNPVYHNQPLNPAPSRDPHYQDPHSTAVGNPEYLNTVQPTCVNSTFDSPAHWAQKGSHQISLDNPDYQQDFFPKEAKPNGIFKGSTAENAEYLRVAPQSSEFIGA

For `COc1cc2nc(C)nc(N[C@H](C)c3cccc(-c4cn[nH]c4)c3)c2cc1OC`, which Activity [1] is on record?
The Activity was 82%.

And the Activity [2]?
Its Activity is 95%.

And the Activity [3]?
Its Activity is 95%.

What about the Activity [4] of the same compound?
Its Activity is 81%.

And the Activity [5]?
The Activity was 100%.

And the Activity [6]?
The Activity was 66%.

And the pIC50 (Calu-1)?
The pIC50 was 4.77.

And the Activity [7]?
Its Activity is 80%.

How did the pIC50 (Calu-1) turn out when `CNCc1ccccc1-c1csc([C@@H](C)Nc2nc(C)nc3cc(OC)c(OC)cc23)c1` [BAY-293] was run?
Its pIC50 is 5.50.

What does the source list for `COc1cc2ncnc(N[C@H](C)c3cccc4ccccc34)c2cc1OC`?
Activity [1]: 13%; Activity [2]: 100%; Activity [3]: 70%; Activity [4]: 95%; Activity [5]: 96%; Activity [6]: 100%; Activity [7]: 100%
